In patent US10995359B2, “Method for determining drug-sensitive human cell lines by analysis method in which measurement of activity of two types of protein kinase is used” (NITTO BOSEKI CO., LTD., priority 2015, dated 2021):

Assays:
Assay in all cases: Drug sensitivity assay (cell growth test), sulforhodamine B
Assay type in all cases: cell-based
HCC1395 (LAR) cells = settings: Homo sapiens, 72 hours, read-out: inhibition rate (%) by trametinib, classification by grid analysis
Procedure: (§1) Cultured cells were treated with a MEK inhibitor and a PI3K inhibitor in various concentrations, and cell lines sensitive to MEK and PI3K were classified by calculating a cell growth inhibition rate. The culture method and analysis method are as follows.
(§2) Thirteen types of cells used in the present study, HCC38 (BL1), MDA-MB-231 (MSL), DU4475 (IM), HCC1187 (IM), HCC1143 (BL1), HCC1395 (LAR), HCC1937 (BL1), MDA-MB-453 (LAR), HCC70 (BL2), HS578T (MSL), MDA-MB-157 (MSL) and MDA-MB-468 (BL1), were obtained from American type culture collection (ATCC), and SUM185PE (LAR) was obtained from ASTERAND BIOSCIENCE. All the cells belong to triple negative breast cancer (TNBC), and it is known which of six types (BL1, BL2, M, MSL, IM and LAR) these belong to by an existing classification method.
(§3) All the cells were cultured in a medium designated from a source of supply, and 2 mM L-glutamine and 10% fetal bovine serum (FBS) were supplemented.
(§4) Each type of cells was seeded in a 96 well titer plate at 1×10^4 cells/well, and trametinib, an MEK inhibitor (Medchem Express; 0.08, 0.16, 0.31, 0.63, 1.25, 2.5, 5, 10 and 20 μM), and wortmannin, a PI3K inhibitor (Wako Pure Chemical Industries, Ltd.; 0.08, 0.16, 0.31, 0.63, 1.25, 2.5, 5, 10 and 20 μM) were dissolved in Dimethyl Sulfoxide [DMSO] (Wako Pure Chemical Industries, Ltd.) in various concentrations and treated. In addition, the effect on cell growth was examined at 72 hours after the inhibitor by sulforhodamine B assay (manufactured by SIGMA-ALDRICH), and 50 μL of sulforhodamine B solution was added to each well and cells were left at room temperature for an hour for staining. The staining degree of metabolically survival cells was examined by monitoring absorbance at a wavelength of 565 nm using a microtiter plate. The absorbance of cells which were not treated with trametinib and wortmannin (treated with DMSO) was used as a control and defined as 100% to calculate a cell growth inhibition rate.
(§5) The cell lines were classified into 4 types, cell lines sensitive to wortmannin (hereinafter, PA), cell lines sensitive to trametinib (hereinafter, MA), cell lines resistant to wortmannin and trametinib (hereinafter, R), and others (hereinafter, S). In the classification, first the inhibition rate of each drug was calculated in a concentration of 1 μM, and the inhibition rate (%) by trametinib and the inhibition rate (%) by wortmannin were plotted on the X axis and Y axis respectively on a graph.
as §5, with “100 nM,” for “1 μM,”
as §5, with “10” for “1”, “graph. Using a 50% growth inhibition rate as an index of the inhibitive effect of a drug, cells were classified into 4 types by grid analysis.” for “graph.”

HS578T (MSL) cells = settings: Homo sapiens, Hs-578T, 72 hours, read-out: inhibition rate (%) by trametinib, classification by grid analysis
Procedure: as §1, §2, §3, §4, §5
as §5, with “100 nM,” for “1 μM,”
as §5, with “10” for “1”, “graph. Using a 50% growth inhibition rate as an index of the inhibitive effect of a drug, cells were classified into 4 types by grid analysis.” for “graph.”

HCC1187 (IM) cells = settings: Homo sapiens, 72 hours, read-out: inhibition rate (%) by trametinib, classification by grid analysis
Procedure: as §1, §2, §3, §4, §5
as §5, with “100 nM,” for “1 μM,”
as §5, with “10” for “1”, “graph. Using a 50% growth inhibition rate as an index of the inhibitive effect of a drug, cells were classified into 4 types by grid analysis.” for “graph.”

HCC38 (BL1) cells = settings: Homo sapiens, 72 hours, read-out: inhibition rate (%) by trametinib, classification by grid analysis
Procedure: as §1, §2, §3, §4, §5
as §5, with “100 nM,” for “1 μM,”
as §5, with “10” for “1”, “graph. Using a 50% growth inhibition rate as an index of the inhibitive effect of a drug, cells were classified into 4 types by grid analysis.” for “graph.”

SUM185PE (LAR) cells = settings: Homo sapiens, 72 hours, read-out: inhibition rate (%) by trametinib, classification by grid analysis
Procedure: as §1, §2, §3, §4, §5
as §5, with “100 nM,” for “1 μM,”
as §5, with “10” for “1”, “graph. Using a 50% growth inhibition rate as an index of the inhibitive effect of a drug, cells were classified into 4 types by grid analysis.” for “graph.”

MDA-MB-468 (BL1) cells = settings: Homo sapiens, 72 hours, read-out: inhibition rate (%) by trametinib, classification by grid analysis
Procedure: as §1, §2, §3, §4, §5
as §5, with “100 nM,” for “1 μM,”
as §5, with “10” for “1”, “graph. Using a 50% growth inhibition rate as an index of the inhibitive effect of a drug, cells were classified into 4 types by grid analysis.” for “graph.”

MDA-MB-453 (LAR) cells = settings: Homo sapiens, 72 hours, read-out: inhibition rate (%) by trametinib, classification by grid analysis
Procedure: as §1, §2, §3, §4, §5
as §5, with “100 nM,” for “1 μM,”
as §5, with “10” for “1”, “graph. Using a 50% growth inhibition rate as an index of the inhibitive effect of a drug, cells were classified into 4 types by grid analysis.” for “graph.”

HCC70 (BL2) cells = settings: Homo sapiens, 72 hours, read-out: inhibition rate (%) by trametinib, classification by grid analysis
Procedure: as §1, §2, §3, §4, §5
as §5, with “100 nM,” for “1 μM,”
as §5, with “10” for “1”, “graph. Using a 50% growth inhibition rate as an index of the inhibitive effect of a drug, cells were classified into 4 types by grid analysis.” for “graph.”

HCC1937 (BL1) cells = settings: Homo sapiens, 72 hours, read-out: inhibition rate (%) by trametinib, classification by grid analysis
Procedure: as §1, §2, §3, §4, §5
as §5, with “100 nM,” for “1 μM,”
as §5, with “10” for “1”, “graph. Using a 50% growth inhibition rate as an index of the inhibitive effect of a drug, cells were classified into 4 types by grid analysis.” for “graph.”

[1] = 100 nM, index 12.5% growth inhibition rate
[2] = 1 μM, index 25% growth inhibition rate
[3] = 10 μM, index 50% growth inhibition rate

CC(=O)Nc1cccc(-n2c(=O)n(C3CC3)c(=O)c3c(Nc4ccc(I)cc4F)n(C)c(=O)c(C)c32)c1 [trametinib]
inhibition at 0.1 µM (HCC1395 (LAR) cells; HCC1395, 100 nM, index 12.5% growth inhibition rate): < 12.5%
inhibition at 1 µM (HCC1395 (LAR) cells; HCC1395, 1 μM, index 25% growth inhibition rate): < 25%
inhibition at 10 µM (HCC1395 (LAR) cells; HCC1395, 10 μM, index 50% growth inhibition rate): < 50%
inhibition at 0.1 µM (HS578T (MSL) cells; [1]): < 12.5%
inhibition at 1 µM (HS578T (MSL) cells; [2]): < 25%
inhibition at 10 µM (HS578T (MSL) cells; [3]): < 50%
inhibition at 0.1 µM (HCC1187 (IM) cells; HCC1187, 100 nM, index 12.5% growth inhibition rate): > 12.5%
inhibition at 1 µM (HCC1187 (IM) cells; HCC1187, 1 μM, index 25% growth inhibition rate): > 25%
inhibition at 10 µM (HCC1187 (IM) cells; HCC1187, 10 μM, index 50% growth inhibition rate): > 50%
inhibition at 0.1 µM (HCC38 (BL1) cells; HCC38, 100 nM, index 12.5% growth inhibition rate): > 12.5%
inhibition at 1 µM (HCC38 (BL1) cells; HCC38, 1 μM, index 25% growth inhibition rate): > 25%
inhibition at 10 µM (HCC38 (BL1) cells; HCC38, 10 μM, index 50% growth inhibition rate): > 50%
inhibition at 0.1 µM (SUM185PE (LAR) cells; [1]): < 12.5%
inhibition at 1 µM (SUM185PE (LAR) cells; [2]): < 25%
inhibition at 10 µM (SUM185PE (LAR) cells; [3]): < 50%
inhibition at 0.1 µM (MDA-MB-468 (BL1) cells; MDA-MB-468, 100 nM, index 12.5% growth inhibition rate): < 12.5%
inhibition at 1 µM (MDA-MB-468 (BL1) cells; MDA-MB-468, 1 μM, index 25% growth inhibition rate): < 25%
inhibition at 10 µM (MDA-MB-468 (BL1) cells; MDA-MB-468, 10 μM, index 50% growth inhibition rate): < 50%
inhibition at 0.1 µM (MDA-MB-453 (LAR) cells; MDA-MB-453, 100 nM, index 12.5% growth inhibition rate): > 12.5%
inhibition at 1 µM (MDA-MB-453 (LAR) cells; MDA-MB-453, 1 μM, index 25% growth inhibition rate): > 25%
inhibition at 10 µM (MDA-MB-453 (LAR) cells; MDA-MB-453, 10 μM, index 50% growth inhibition rate): > 50%
inhibition at 0.1 µM (HCC70 (BL2) cells; HCC70, 100 nM, index 12.5% growth inhibition rate): > 12.5%
inhibition at 1 µM (HCC70 (BL2) cells; HCC70, 1 μM, index 25% growth inhibition rate): > 25%
inhibition at 10 µM (HCC70 (BL2) cells; HCC70, 10 μM, index 50% growth inhibition rate): > 50%
inhibition at 0.1 µM (HCC1937 (BL1) cells; HCC1937, 100 nM, index 12.5% growth inhibition rate): < 12.5%
inhibition at 1 µM (HCC1937 (BL1) cells; HCC1937, 1 μM, index 25% growth inhibition rate): < 25%
inhibition at 10 µM (HCC1937 (BL1) cells; HCC1937, 10 μM, index 50% growth inhibition rate): < 50%
